Data: patent US20140309192A1, “MODULATORS OF THE G PROTEIN-COUPLED MAS RECEPTOR AND THE TREATMENT OF DISORDERS RELATED THERETO” (ARENA PHARMACEUTICALS, INC., priority 2011, published 2014)
Counter-ions that a name gives are not always drawn.

Test: Dynamic moisture-sorption (DMS)
Assay type: physicochemical
Conditions: for hygroscopicity (DMS) / total weight gain from the dried state (DMS): 25° C.; for weight gain at 90% RH and 25° C. (DMS): after a drying period
Experimental: A dynamic moisture-sorption (DMS) study was conducted using a dynamic moisture-sorption analyzer, VTI Corporation, SGA-100. Samples were prepared for DMS analysis by placing 5 mg to 20 mg of a sample in a tared sample holder. The sample was placed on the hang-down wire of the VTI balance. A drying step was run, typically at 40° C. and 0.5-1% RH for 1 h. The isotherm temperature is 25° C. Defined % RH holds typically ranged from 10% RH to 90% RH, with intervals of 10 to 20% RH. A % weight change smaller than 0.010% over 10 min, or up to 2 h, whichever occurred first, was required before continuing to the next % RH hold. The water content of the sample equilibrated as described above was determined at each % RH hold.

| Structure (SMILES) | hygroscopicity (DMS) | weight gain at 90% RH and 25° C. (DMS) | water picked up from 30% RH to 90% RH at 25° C. (DMS) | total weight gain from the dried state (DMS) |
| --- | --- | --- | --- | --- |
| NC(=O)[C@H](CO)NCc1ccc(C(=O)Nc2ccc(Cl)cc2N2CCN(CCC(F)(F)F)CC2)c(F)c1F [Compound 170 (Example 2.5B)] | FIG. 11: This polymorph of the free base is non-hygroscopic, | increasing ~0.1% weight at 90% RH and 25 °C |  |  |
| NC(=O)[C@H](CO)NCc1ccc(C(=O)Nc2ccc(Cl)cc2N2CCN(CCC(F)(F)F)CC2)c(F)c1F [Compound 170 dihydrochloride hydrate] |  |  | 0.7% water from 30% RH to 90% RH at 25 °C | dried state was about 2.5%. The sample picked up only about |
| NC(=O)[C@H](CO)NCc1ccc(C(=O)Nc2ccc(Cl)cc2N2CCN(CCC(F)(F)F)CC2)c(F)c1F [Compound 170 dihydrochloride solvate] |  |  |  | The total weight gain from the dried state was about 2%, thus |
| Cl.Cl.NC(=O)[C@H](CO)NCc1ccc(C(=O)Nc2ccc(Cl)cc2N2CCN(CCC(F)(F)F)CC2)c(F)c1F [Compound 170 dihydrochloride, (S)-4-((1-amino-3-hydroxy-1-oxopropan-2-ylamino)methyl)-N-(4-chloro-2-(4-(3,3,3-trifluoropropyl)piperazin-1-yl)phenyl)-2,3-difluorobenzamide dihydrochloride] |  | drying period, was about 3.4%. It was shown by PXRD of the |  |  |
| NC(=O)[C@H](CO)NCc1ccc(C(=O)Nc2ccc(Cl)cc2N2CCN(CCC(F)(F)F)CC2)c(F)c1F [Compound 170, (S)-4-((1-Amino-3-hydroxy-1-oxopropan-2-ylamino)methyl)-N-(4-chloro-2-(4-(3,3,3-trifluoropropyl)piperazin-1-yl)phenyl)-2,3-difluorobenzamide] | non-hygroscopic | ~0.1% |  |  |
